IC50 data for 17 compounds are collected here from patent US8933099B2, “Monocyclic pyridine derivative” (Eisai R&D Management Co., Ltd., priority 2013, dated 2015).

Experiment [1] relates to human stomach cancer cell line SNU-16 (FGFR2 gene amplification). The experiment is described as follows: SNU-16 growth inhibition assay. Type of experiment: cell-based. The conditions noted are these: Homo sapiens, SNU-16, 72 h, read-out: SNU-16 (IC50 (nM)), cell growth, 3 days, Cell Counting Kit-8. Here is the method:
In this assay, the growth inhibitory activity of a test substance in a human stomach cancer cell line harboring FGFR2 gene amplification is measured.
Then, 10 μL of Cell Counting Kit-8 (Dojindo Laboratories, CK04) was added to each well, and the resultant was incubated for 1 to 2 hours in a 5% CO2 incubator (37° C.) to cause a color reaction. The absorbance value was measured with ENVISION™ (PerkinElmer Co., Ltd.) at 450 nm.

Experiment [2] concerns normal human umbilical vein endothelial cells (HUVEC). The experiment is described as follows: HUVEC growth inhibition assay (VEGF-induced). The class given is cell-based. To be noted: Homo sapiens, HUVEC, 72 h, read-out: HUVEC (IC50 (nM)), growth in the presence of VEGF 10 ng/mL, 3 days. The method, then:
The absorbance value was measured with ENVISION™ (PerkinElmer Co., Ltd.) at 450 nm. The absorbance values of the wells without adding the test substance but with VEGF addition was defined as 100% and the absorbance values of the wells with neither the test substance nor VEGF addition was defined as 0%.

SMILES strings stand for the structures.

In the case of `CNC(=O)n1ccc2cc(Oc3ccnc(NC(=O)c4ccc(C5CCN(C(C)C)CC5)cc4)c3)c(OCCOC)cc21` [Example 23, 5-((2-(4-(1-Isopropylpiperidin-4-yl)benzamide)pyridin-4-yl)oxy)-6-(2-methoxyethoxy)-N-methyl-1H-indole-1-carboxamide], the IC50 was determined as 6.5 nM in experiment [1] and 300 nM in experiment [2].

Take `CCOCCOc1cc2c(ccn2C(=O)NC)cc1Oc1ccnc(NC(=O)c2ccc(C3CN(CCO)C3)cc2)c1` [Example 27, 6-(2-Ethoxyethoxy)-5-((2-(4-(1-(2-hydroxyethyl)azetidin-3-yl)benzamide)pyridin-4-yl)oxy)-N-methyl-1H-indole-1-carboxamide]: the IC50 turned out to be 6.2 nM in experiment [1] and 218 nM in experiment [2].

With `CCOCCOc1cc2c(ccn2C(=O)NC)cc1Oc1ccnc(NC(=O)c2ccc(C3CCN(CC)CC3)nc2)c1` [Example 28, 6-(2-Ethoxyethoxy)-5-((2-(6-(1-ethylpiperidin-4-yl)nicotinamide)pyridin-4-yl)oxy)-N-methyl-1H-indole-1-carboxamide], the results for the IC50 in experiment [1] and in experiment [2] were 7.3 nM and 664 nM, respectively.

In the case of `CCOCCOc1cc2c(ccn2C(=O)NC)cc1Oc1ccnc(NC(=O)c2ccc(CN3CCC[C@H]3CO)cc2)c1` [Example 29], the IC50 amounted to 8.8 nM in experiment [1] and 600 nM in experiment [2].

As for `CCOCCOc1cc2c(ccn2C(=O)NC)cc1Oc1ccnc(NC(=O)c2ccc(CN3CC[C@@H](O)C3)s2)c1` [Example 31], the IC50 in experiment [1] worked out at 4.7 nM; in experiment [2] it was 186 nM.

As for `CCN1CCC(c2ccc(C(=O)Nc3cc(Oc4cc5ccn(C(=O)NC)c5cc4OCCCF)ccn3)cc2)CC1` [Example 33, 5-((2-(4-(1-Ethylpiperidin-4-yl)benzamide)pyridin-4-yl)oxy)-6-(3-fluoropropoxy)-N-methyl-1H-indole-1-carboxamide], the results for the IC50 in experiment [1] and in experiment [2] were 8.1 nM and 274 nM, respectively.

Consider `CNC(=O)n1ccc2cc(Oc3ccnc(NC(=O)c4ccc(CN5CCC[C@@H]5CO)s4)c3)c(OC)cc21` [Example 34], for which the figures for the IC50 in experiment [1] and in experiment [2] were 14 nM and 195 nM, respectively.

For the compound `CNC(=O)n1ccc2cc(Oc3ccnc(NC(=O)c4ccc(CN5CCC[C@H]5CO)s4)c3)c(OC)cc21` [Example 35], the figures for the IC50 in experiment [1] and in experiment [2] were 9.8 nM and 139 nM, respectively.

As to `CNC(=O)n1ccc2cc(Oc3ccnc(NC(=O)c4ccc(CN5C[C@@H](C)N[C@@H](C)C5)s4)c3)c(OC)cc21` [Example 36], the IC50 turned out to be 11 nM in experiment [1] and 136 nM in experiment [2].

Take `CCN1CCN(Cc2ccc(C(=O)Nc3cc(Oc4cc5ccn(C(=O)NC)c5cc4OC)ccn3)s2)CC1` [Example 37]: the IC50 in experiment [1] worked out at 9.4 nM; in experiment [2], 79.1 nM.

Take `CNC(=O)n1ccc2cc(Oc3ccnc(NC(=O)c4ccc(CN5CCC(O)CC5)s4)c3)c(OC)cc21` [Example 38]: the values for the IC50 in experiment [1] and in experiment [2] were 8 nM and 137 nM, respectively.

Regarding `CNC(=O)n1ccc2cc(Oc3ccnc(NC(=O)c4ccc(C5CCN(CC(C)(C)O)CC5)cc4)c3)c(OC)cc21` [Example 39], the IC50 in experiment [1] came to 7.8 nM; in experiment [2], 124 nM.

Turning to `CNC(=O)n1ccc2cc(Oc3ccnc(NC(=O)c4ccc(C5CCN(C(C)C)CC5)cc4)c3)c(OC)cc21` [Example 40], the IC50 in experiment [1] is 8.3 nM; in experiment [2], 162 nM.

As for `CNC(=O)n1ccc2cc(Oc3ccnc(NC(=O)c4ccc(OC5CCN(C[C@@H](C)O)CC5)cc4)c3)c(OC)cc21` [Example 41], the results for the IC50 in experiment [1] and in experiment [2] were 9.3 nM and 179 nM, respectively.

For `CNC(=O)n1ccc2cc(Oc3ccnc(NC(=O)c4ccc(OC5CCN(C[C@H](C)O)CC5)cc4)c3)c(OC)cc21` [Example 42], the IC50 in experiment [1] stood at 14.1 nM; in experiment [2] it was 184 nM.

As to `CCN1CCC(Oc2ccc(C(=O)Nc3cc(Oc4cc5ccn(C(=O)NC)c5cc4OC)ccn3)cc2)CC1` [Example 43], the results for the IC50 in experiment [1] and in experiment [2] were 11.8 nM and 166 nM, respectively.

Turning to `CNC(=O)n1ccc2cc(Oc3ccnc(NC(=O)c4cnn(C5CCN(C[C@@H](C)O)CC5)c4)c3)c(OC)cc21` [Example 44], the IC50 worked out at 16.3 nM in experiment [1] and 392 nM in experiment [2].
